Experimental data reported in article PMC8749556, “Functional Characterization of Melanocortin-3 Receptor in a Hibernating Cavefish Onychostoma macrolepis” (Animals : an Open Access Journal from MDPI, 2021).
“Also recorded” adds a separate entry of the source.

Experiments:
Mc3r of channel catfish = conditions: ref [12]; cited from earlier work
Mc3r of spiny dogfish = conditions: ref [3]; cited from earlier work
omMc3r [1] = assay: cAMP signaling, CRE luciferase reporter (pGL4.29) assay; type: cell-based, Onychostoma macrolepis; conditions: pGL4.29 (CRE) luciferase reporter
Method: (§1) In order to test whether omMc3r can be activated by ligands in vitro, we sub-cloned the coding region of omMc3r into pcDNA3.1 (+) vector (Invitrogen, Carlsbad, CA, USA) for subsequent transfection of cells. The constructed vector was further verified by sequencing before use.
(§2) Human embryonic kidney (HEK293T) cells were cultured in Dulbecco modified Eagle’s medium (DMEM, Invitrogen, Carlsbad, CA, USA) supplemented with 10% fetal bovine serum (FBS, Biological Industries, Kibbutz Beit Haemek, Israel) and placed in a humid environment containing 5% CO2 at 37 °C. Cells were passaged every 2 days.
(§3) This study employed the luciferase reporter system to examine whether the four ligands can activate downstream signals through omMc3r. The luciferase reporter vector pGL4.29 and pGL4.33 of Promega (Madison, WI, USA) contain cAMP respose element (CRE) and serum response element (SRE) in their promoter regions, which can monitor the activation of cAMP and MAPK/ERK signaling pathways, respectively. The brief operating procedure was as follows: the HEK293T cells were passaged to a 6-well plate 24 h before transfection. […] An Infinite F200 microplate reader (Tecan, Männedorf, Switzerland) was used to measure the luciferase activities. […]

omMc3r [2] = assay: MAPK/ERK (ERK1/2) signaling, SRE luciferase reporter (pGL4.33) assay; type: cell-based, Onychostoma macrolepis
Method: as §1, §2, §3

Human MC3R = conditions: ref [3]; cited from earlier work

For adrenocorticotropin [ACTH], the “ligand affinity of channel catfish Mc3r (in words)” value (Mc3r of channel catfish) is listed as “highest affinity” and the “ligand affinity of spiny dogfish Mc3r (in words)” value (Mc3r of spiny dogfish) is listed as “highest affinity”.
In the case of “β-melanocyte-stimulating hormone [β-MSH]”, the EC50 (omMc3r [1]; HEK293T cells transiently transfected with omMc3r plasmid, ligand 6 h in serum-free DMEM, fold change vs serum-free DMEM, nonlinear regression, mean ± SEM (n = 3, figure legend: mean (SD) of three independent experiments), read-out: EC50, cAMP Response) is reported as 270 ± 4.95 nM, the “activation of cAMP signaling through omMc3r (in words)” value (omMc3r [1]; HEK293T cells, ligand 6 h) is reported as “can all activate the cAMP and MAPK/ERK signaling pathway; also recorded: can activate cAMP and MAPK/ERK signaling pathways in a dose-dependent manner; also recorded: could potently activate the Gαs-cAMP and MAPK/ERK signaling pathway through omMc3r; also recorded: could activate cAMP and the MAPK/ERK signaling through omMc3r with different degrees of potency” and the EC50 (omMc3r [2]; HEK293T cells co-transfected with omMc3r plasmid and pGL4.33 (SRE) luciferase reporter, ligand 6 h in serum-free DMEM, fold change vs serum-free DMEM, nonlinear regression, mean ± SEM (n = 3, figure legend: mean (SD) of three independent experiments), read-out: EC50, ERK1/2 Response) is reported as 4.85 ± 0.0107 µM. For the same substance, the “activation of MAPK/ERK signaling through omMc3r (in words)” value (omMc3r [2]; HEK293T cells, pGL4.33 (SRE) luciferase reporter, ligand 6 h) was “can all activate the cAMP and MAPK/ERK signaling pathway; also recorded: can activate cAMP and MAPK/ERK signaling pathways in a dose-dependent manner; also recorded: could potently activate the Gαs-cAMP and MAPK/ERK signaling pathway through omMc3r; also recorded: could activate cAMP and the MAPK/ERK signaling through omMc3r with different degrees of potency”.
For “γ-melanocyte-stimulating hormone [γ-MSH]”, the “ligand preference of human MC3R (in words)” value (Human MC3R) is given as “unique preference”.
